Experimental data published in article PMC11432330, “Novel Drug-like HsrA Inhibitors Exhibit Potent Narrow-Spectrum Antimicrobial Activities against Helicobacter pylori” (International Journal of Molecular Sciences, 2024).

System: H. pylori 26695
Experiment: In vivo inhibition of HsrA: RNA-Seq transcriptomic analysis of exposed cells
Type: cell-based, Helicobacter pylori
Details: for log2 Fold Change: exposed to lethal concentrations vs control
Description: Bacterial growth from three blood agar plates of H. pylori ATCC 700392 (aka 26695) incubated for 48 h at 37 °C under microaerobic conditions was aseptically resuspended in BHI + FBS and adjusted to 10^7 CFU/mL. BHI broth cultures were incubated microaerobically at 37 °C for 24 h. […] At this time, bacterial growth was stopped by adding 1.5 mL ice-cold RNA stop solution (95% absolute ethanol, 5% acid-buffered phenol) and subsequently incubated on ice. Control samples were exposed to the same amount of DMSO instead of the inhibitor. Helicobacter cells from all samples were harvested by centrifugation (4000 rpm at 4 °C for 10 min), then the pellets were quickly frozen by immersion in liquid nitrogen and stored at −80 °C.
RNA-Seq analysis was performed by GENEWIZ (Azenta Life Sciences, Leipzig, Germany). Frozen cell pellets from two biological replicates of each treatment condition were properly submitted to GENEWIZ in dry ice. RNA-Seq libraries were prepared according to standard protocols via rRNA depletion, RNA fragmentation and random priming, reverse transcription, 5’-phosphorylation and dA-tailing of cDNAs, adaptor ligation, and PCR enrichment. Once the quality of each library was confirmed, they were sequenced on an Illumina NovaSeq 6000 (Illumina, San Diego, CA, USA) with 150-bp paired-ends. Raw sequence reads were filtered to remove possible adapter sequences and nucleotides with poor quality using Trimmomatic v.0.36 [105]. The trimmed reads were subsequently mapped to the H. pylori strain 26695 reference genome NC_000915.1 available on NCBI, by using the Bowtie2 aligner v.2.2.6 [106]. Unique gene hit counts were calculated by using featureCounts from the Subread package v.1.5.2. Only unique reads that fell within the gene regions were counted. Using DESeq2 [108], a comparison of the gene expression between the control and treated groups of samples was performed. The Wald test was used to generate p-values and log2 fold changes. Genes with an adjusted p-value < 0.05 and absolute log2 fold change >1 were considered as differentially expressed genes (DEGs) for each comparison. The RNA-Seq data generated in this study have been deposited in ArrayExpress with the accession number E-MTAB-14255.

[1] = RNA-Seq, 4 × MIC, vs control samples

Q: How did the “Exposure until log10 CFU/mL diminished in one unit” value (4 × MIC, ~3 × 10^7 CFU/mL H. pylori 26695) turn out when `NC(=NOC(=O)Nc1ccc(Cl)cc1)c1csc([N+](=O)[O-])c1` [Ligand V, N′-{[(4-chloroanilino)carbonyl]}oxy-5-nitrothiophene-3-carboximidamide] was run?
A: ~ 2 h

Q: What about the “Depletion in gene expression of 50S ribosomal proteins L21, L35, L27 and 30S ribosomal protein S10” value (RNA-Seq, 4 × MIC) of the same molecule?
A: > 5.8 fold

Q: What about the “Downregulation of ferrous iron transporter FeoB” value (RNA-Seq, 4 × MIC) of the same molecule?
A: ~ 2.5 fold

Q: And the “ORFs of the H. pylori genome with influenced expression” value (RNA-Seq, 4 × MIC)?
A: 23%

Q: What about the “Upregulation of ferritin (pfr, hp0653)” value (RNA-Seq, 4 × MIC) of the same molecule?
A: 4.7 fold

Q: And the “Upregulation of ferritin-like iron-binding protein NapA” value (RNA-Seq, 4 × MIC)?
A: 2.3 fold

Q: And the Genes downregulated [1]?
A: 155

Q: What about the Genes upregulated [1] of the same molecule?
A: 212

Q: What about the “ORF with significantly changed transcript levels” value (RNA-Seq, 4 × MIC, absolute log2 fold change > 1, p-value < 0.05) of the same molecule?
A: 367

Q: What about the “log2 Fold Change HP0013” value (gene HP0013, lethal concentrations of V vs control) of the same molecule?
A: 0.182

Q: What about the “log2 Fold Change HP0018” value (gene HP0018, lethal concentrations of V vs control) of the same molecule?
A: 0.356

Q: What about the “log2 Fold Change” value (gene HP0022) of the same molecule?
A: -0.512

Q: And the “log2 Fold Change HP0028” value (gene HP0028, lethal concentrations of V vs control)?
A: 0.408

Q: And the “log2 Fold Change” value (gene HP0029)?
A: -0.496

Q: What about the “log2 Fold Change HP0030” value (gene HP0030, lethal concentrations of V vs control) of the same molecule?
A: 0.184

Q: What about the “log2 Fold Change HP0033” value (gene HP0033, lethal concentrations of V vs control) of the same molecule?
A: 0.361

Q: And the “log2 Fold Change” value (gene HP0043)?
A: -0.566

Q: What about the “log2 Fold Change” value (gene HP0054) of the same molecule?
A: -0.519

Q: What about the “log2 Fold Change HP0063” value (gene HP0063, lethal concentrations of V vs control) of the same molecule?
A: 0.326

Q: What about the “log2 Fold Change HP0066” value (gene HP0066, lethal concentrations of V vs control) of the same molecule?
A: 0.182

Q: And the “log2 Fold Change HP0081” value (gene HP0081, lethal concentrations of V vs control)?
A: 0.173

Q: What about the “log2 Fold Change HP0082” value (gene HP0082, lethal concentrations of V vs control) of the same molecule?
A: 0.224

Q: And the “log2 Fold Change HP0089” value (gene HP0089, lethal concentrations of V vs control)?
A: 0.244

Q: And the “log2 Fold Change” value (gene HP0099)?
A: -0.573

Q: And the “log2 Fold Change HP0102” value (gene HP0102, lethal concentrations of V vs control)?
A: 0.190

Q: And the “log2 Fold Change HP0104” value (gene HP0104, lethal concentrations of V vs control)?
A: 0.451

Q: And the “log2 Fold Change HP0106” value (gene HP0106, lethal concentrations of V vs control)?
A: 0.286

Q: And the “log2 Fold Change HP0121” value (gene HP0121, lethal concentrations of V vs control)?
A: 0.408

Q: And the “log2 Fold Change HP0138” value (gene HP0138, lethal concentrations of V vs control)?
A: 0.430

Q: What about the “log2 Fold Change” value (gene HP0141) of the same molecule?
A: -0.503

Q: What about the “log2 Fold Change” value (gene HP0142) of the same molecule?
A: -0.490

Q: And the “log2 Fold Change HP0144” value (gene HP0144, lethal concentrations of V vs control)?
A: 0.204

Q: And the “log2 Fold Change HP0145” value (gene HP0145, lethal concentrations of V vs control)?
A: 0.164

Q: And the “log2 Fold Change” value (gene HP0149)?
A: -0.471

Q: What about the “log2 Fold Change” value (gene HP0151) of the same molecule?
A: 1.340

Q: And the “log2 Fold Change HP0152” value (gene HP0152, lethal concentrations of V vs control)?
A: 0.161

Q: And the “log2 Fold Change HP0155” value (gene HP0155, lethal concentrations of V vs control)?
A: 0.192

Q: What about the “log2 Fold Change” value (gene HP0159) of the same molecule?
A: -0.532

Q: And the “log2 Fold Change HP0166” value (gene HP0166, lethal concentrations of V vs control)?
A: 0.208

Q: And the “log2 Fold Change HP0170” value (gene HP0170, lethal concentrations of V vs control)?
A: 0.476

Q: And the “log2 Fold Change HP0186” value (gene HP0186, lethal concentrations of V vs control)?
A: 0.474

Q: What about the “log2 Fold Change HP0195” value (gene HP0195, lethal concentrations of V vs control) of the same molecule?
A: 0.229

Q: And the “log2 Fold Change” value (gene HP0202)?
A: -0.569

Q: What about the “log2 Fold Change HP0209” value (gene HP0209, lethal concentrations of V vs control) of the same molecule?
A: 0.364

Q: What about the “log2 Fold Change HP0214” value (gene HP0214, lethal concentrations of V vs control) of the same molecule?
A: 0.273

Q: What about the “log2 Fold Change HP0215” value (gene HP0215, lethal concentrations of V vs control) of the same molecule?
A: 0.474

Q: What about the “log2 Fold Change HP0221” value (gene HP0221, lethal concentrations of V vs control) of the same molecule?
A: 0.231

Q: What about the “log2 Fold Change” value (gene HP0222) of the same molecule?
A: -0.475

Q: And the “log2 Fold Change HP0224” value (gene HP0224, lethal concentrations of V vs control)?
A: 0.431

Q: What about the “log2 Fold Change HP0230” value (gene HP0230, lethal concentrations of V vs control) of the same molecule?
A: 0.223

Q: What about the “log2 Fold Change HP0234” value (gene HP0234, lethal concentrations of V vs control) of the same molecule?
A: 0.200

Q: What about the “log2 Fold Change” value (gene HP0257) of the same molecule?
A: -0.600

Q: And the “log2 Fold Change HP0263” value (gene HP0263, lethal concentrations of V vs control)?
A: 0.370

Q: What about the “log2 Fold Change HP0267” value (gene HP0267, lethal concentrations of V vs control) of the same molecule?
A: 0.453

Q: What about the “log2 Fold Change” value (gene HP0268) of the same molecule?
A: -0.504

Q: And the “log2 Fold Change” value (gene HP0285)?
A: -0.482

Q: What about the “log2 Fold Change HP0290” value (gene HP0290, lethal concentrations of V vs control) of the same molecule?
A: 0.227

Q: And the “log2 Fold Change” value (gene HP0293)?
A: -0.482

Q: And the “log2 Fold Change HP0315” value (gene HP0315, lethal concentrations of V vs control)?
A: 0.371

Q: And the “log2 Fold Change HP0316” value (gene HP0316, lethal concentrations of V vs control)?
A: 0.320

Q: What about the “log2 Fold Change HP0322” value (gene HP0322, lethal concentrations of V vs control) of the same molecule?
A: 0.305

Q: What about the “log2 Fold Change HP0329” value (gene HP0329, lethal concentrations of V vs control) of the same molecule?
A: 0.261

Q: And the “log2 Fold Change HP0338” value (gene HP0338, lethal concentrations of V vs control)?
A: 0.386

Q: What about the “log2 Fold Change HP0339” value (gene HP0339, lethal concentrations of V vs control) of the same molecule?
A: 0.459

Q: What about the “log2 Fold Change HP0340” value (gene HP0340, lethal concentrations of V vs control) of the same molecule?
A: 0.379

Q: And the “log2 Fold Change HP0348” value (gene HP0348, lethal concentrations of V vs control)?
A: 0.281

Q: What about the “log2 Fold Change HP0360” value (gene HP0360, lethal concentrations of V vs control) of the same molecule?
A: 0.234

Q: What about the “log2 Fold Change HP0385” value (gene HP0385, lethal concentrations of V vs control) of the same molecule?
A: 0.352

Q: And the “log2 Fold Change HP0391” value (gene HP0391, lethal concentrations of V vs control)?
A: 0.386

Q: And the “log2 Fold Change HP0393” value (gene HP0393, lethal concentrations of V vs control)?
A: 0.172

Q: And the “log2 Fold Change” value (gene HP0396)?
A: -0.496

Q: And the “log2 Fold Change HP0405” value (gene HP0405, lethal concentrations of V vs control)?
A: 0.308

Q: What about the “log2 Fold Change HP0408” value (gene HP0408, lethal concentrations of V vs control) of the same molecule?
A: 0.201

Q: What about the “log2 Fold Change HP0416” value (gene HP0416, lethal concentrations of V vs control) of the same molecule?
A: 0.330

Q: And the “log2 Fold Change” value (gene HP0418)?
A: -0.527

Q: And the “log2 Fold Change HP0420” value (gene HP0420, lethal concentrations of V vs control)?
A: 0.289

Q: And the “log2 Fold Change HP0437” value (gene HP0437, lethal concentrations of V vs control)?
A: 0.205

Q: And the “log2 Fold Change HP0440” value (gene HP0440, lethal concentrations of V vs control)?
A: 0.156

Q: What about the “log2 Fold Change HP0441” value (gene HP0441, lethal concentrations of V vs control) of the same molecule?
A: 0.254

Q: And the “log2 Fold Change HP0447” value (gene HP0447, lethal concentrations of V vs control)?
A: 0.436
